Data as given in patent publication US5196410A, “Transdermal flux enhancing compositions” (priority 1991, dated 1993).
In brackets after ≈: the same amount, converted by molar mass. Like-named read-outs stand apart in the source and are kept apart here.

Legend:
[1] = assay type: in vitro ADME, porcine
Experimental: Samples were removed periodically from the receiver side of the diffusion cell, mixed with a Z0 scintillation cocktail (Scintisol, Isolabs, Inc., Akron, OH) and counted for several minutes in a liquid scintillation counter (Model Mark III-6881, Tracor Analytical, Elk Grove Village, IL). Following an initial lag time of about 6 hours, the amount of
salicylic acid appearing in the receiver side was linear with time for the duration of the experiment (routinely 24 to 48 hours). […] This value, when divided by the specific acitivity of salicyclic acid in the saturated solution (approximately 300 dpm/mg) and the area of exposed skin (0.2 cm^2), yielded the flux (mg/cm^2/ hr). Samples removed from the donor side at the beginning and end of the experiment contained, within error, the same amount of salicylic acid. Thus, constant concentration of the permeant was maintained on the donor side throughout the experiment.

[2] = Infrared spectra of fatty acid treated porcine stratum corneum; settings: C-H antisymmetric stretching; stratum corneum treated with […] fatty acid in ethanol, 30% (w/w) water
Experimental: (§1) Stratum corneum sheets were prepared from porcine skin by trypsin treatment. Thus, full thickness porcine skin samples were dermatomed to 350 μm thickness and spread, stratum corneum side up, on filter paper saturated with 0.5% crude trypsin in phosphate buffered saline at pH 7.4 (Sorensen's buffer). After several hours at 37° C. the stratum corneum was peeled away, washed in soybean trypsin inhibitor, water and air dried. Samples were stored desiccated at room temperature until used. Prior to use, dry skin samples of known weight were incubated for two hours in an 0.15M solution of the appropriate fatty acid in ethanol, the samples were then washed for ten seconds in ethanol, spread on wire mesh, dried over a desiccant and the dry sample reweighed. The stratum corneum samples were then held for several days in a chamber at 22° C., 95% relative humidity, during which the stratum corneum samples equilibrated to a water content of 30% (w/w).
Infrared spectra were obtained with a Fourier Transform Infrared Spectrometer^4 (FTIR) equipped with a liquid nitrogen cooled mercury-cadmium telluride detector. In order to prevent water loss, hydrated samples were sealed between zinc sulfide windows while maintained at 22° C., 95% relative humidity. Sealed samples were placed in the spectrometer where an average of 127 scans were obtained in about six minutes for each of the fatty acid treatments. The digitized data were transferred to a computer (Apple IIe) for determination of frequency and bandwidth of the C--H antisymmetric stretching absorbance. Due to the digital nature of the FTIR instrument, absorbance and frequency data exist only in discrete increments. With the instrument used, the exact value of any frequency point could only be determined with a precision not greater than 2.7 cm^-1. The peak frequency was estimated with much greater precision, however, using a center of gravity algorithm for digitized data reported by Cameron et al., Applied Spectr., 36 245-250 (1982).

[3] = Differential scanning calorimetry of fatty acid treated porcine stratum corneum; settings: stratum corneum treated with […] fatty acid in ethanol, 30% (w/w) water
Experimental: as §1
(§2) The differential scanning calorimeter^5 was used at a scan rate of 0.75° C./minute. Duplicate samples from each of the above FTIR experiments were combined for DSC measurements. Alternately, stratum corneum samples of known weight (about 20 mg) were treated with each fatty acid in the same manner described above. Treated samples were hydrated for several days at 95% R.H., 22° C. and reweighed.

physchem = settings: […] oleic acid, organic solvent or mixture
[4] = for Flux: SD in parentheses
[5] = Lipid transition temperature of porcine stratum corneum by DSC in vehicles containing oleic acid
Experimental: as §1, with “dry skin samples of known weight were incubated for two hours in an 0.15M solution of the appropriate” left out
as §2

[6] = Experimental: The in vitro flux of piroxicam was measured from ethanol/buffer vehicles containing 0.25% v/v (0.224% w/v) cis-9-octadecenoic acid (oleic acid). The buffer employed was Sorensen's Buffer, pH 7.3-7.4^3, all experiments were carried out at 32° C. […] Buffer only was introduced into the chamber (receiver) in contact with the internal side of the skin. The donor chamber, in contact with the outer side of the skin was filled with the appropriate ethanol/buffer vehicle containing 0.25% v/v cis-9-octadecenoic acid (oleic acid) and an excess of piroxicam.

CCCCCCCCCCC/C=C\CCCCC(=O)O [Petroselenic]
Flux of Salicylic Acid [1]: 0.79 mg/cm^2 /hr | Peak IR Frequency [2]: 2919.0 cm⁻¹ | DSC Tm (temperature of the transition maximum) [3]: 60.5 °C

CN1C(C(=O)Nc2ccccn2)=C(O)c2ccccc2S1(=O)=O [Piroxicam, 4-hydroxy-2-methyl-N-2-pyridinyl-2H-1,2-benzothiazine-3-carboxamide 1,1-dioxide]
solubility (physchem; 0/100 ethanol/buffer): 40 µg/mL (≈ 121 µM) | solubility (physchem; 10/90 ethanol/buffer): 190 µg/mL (≈ 573 µM) | solubility (physchem; 20/80 ethanol/buffer): 460 µg/mL (≈ 1390 µM) | solubility (physchem; 30/70 ethanol/buffer): 710 µg/mL (≈ 2140 µM) | solubility (physchem; 40/60 ethanol/buffer): 1200 µg/mL (≈ 3620 µM) | solubility (physchem; 50/50 ethanol/buffer): 1500 µg/mL (≈ 4530 µM) | solubility (physchem; 100/0 ethanol/buffer): 1200 µg/mL (≈ 3620 µM)

Cc1cnc(C(=O)NCCc2ccc(S(=O)(=O)NC(=O)NC3CCCCC3)cc2)cn1 [Glipizide]
Flux ([4]; 20% v/v ethanol, 0.5% v/v Azone, 6.8 mg/ml, pH 8.8): 55.9 (38.8) mg/day/30 cm^2 | Flux ([4]; 20% v/v ethanol, no Azone, 6.7 mg/ml, pH 8.9): 0.4 (0.04) mg/day/30 cm^2 | Flux ([4]; 30% v/v ethanol, 0.5% v/v Azone, 8.1 mg/ml, pH 8.8): 101.4 (10.3) mg/day/30 cm^2 | Flux ([4]; 30% v/v ethanol, no Azone, 8.2 mg/ml, pH 8.9): 0.6 (0.2) mg/day/30 cm^2 | Flux ([4]; 55% v/v ethanol, 0.5% v/v Azone, 17.5 mg/ml, pH 8.8): 30.8 (6.5) mg/day/30 cm^2 | Flux ([4]; 55% v/v ethanol, no Azone, 17.9 mg/ml, pH 9.1): 2.7 (0.5) mg/day/30 cm^2 | in vitro transport ([4]; range over vehicles): 30.8 to 101.4 mg/day/30 cm^2

CCCCCCCC/C=C\CCCCCCCC(=O)O [Oleic Acid, cis-9-octadecenoic acid]
Flux of Salicylic Acid [1]: 3.81 mg/cm^2 /hr | flux of salicylic acid (in words) [1]: significantly greater | Lipid Transition Temperature, Tm ([5]; 0/100 PEG 200/0.1M Tris buffer (pH 6.8-7.3), […] v/v oleic acid): 59 °C | Lipid Transition Temperature, Tm ([5]; 0/100 ethanol/0.1M Tris buffer (pH 6.8-7.3), […] v/v oleic acid): 58 °C | Lipid Transition Temperature, Tm ([5]; 0/100 glycerin/0.1M Tris buffer (pH 6.8-7.3), […] v/v oleic acid): 58 °C | Lipid Transition Temperature, Tm ([5]; 0/100 v/v ethanol/Sorensen's buffer pH 7.3, […] v/v oleic acid): 57.5 °C | Lipid Transition Temperature, Tm ([5]; 20/40/40 ethanol/PG/0.1M Tris buffer (pH 6.8-7.3), […] v/v oleic acid): 55 °C | Lipid Transition Temperature, Tm ([5]; 20/80 PEG 200/0.1M Tris buffer (pH 6.8-7.3), […] v/v oleic acid): 59 °C | Lipid Transition Temperature, Tm ([5]; 20/80 ethanol/0.1M Tris buffer (pH 6.8-7.3), […] v/v oleic acid): 59 °C | Lipid Transition Temperature, Tm ([5]; 20/80 glycerin/0.1M Tris buffer (pH 6.8-7.3), […] v/v oleic acid): 62.5 °C | Lipid Transition Temperature, Tm ([5]; 20/80 v/v ethanol/Sorensen's buffer pH 7.3, […] v/v oleic acid): 54.5 °C | Lipid Transition Temperature, Tm ([5]; 30/70 v/v ethanol/Sorensen's buffer pH 7.3, […] v/v oleic acid): 54.0 °C | Lipid Transition Temperature, Tm ([5]; 33/33/34 ethanol/PG/0.1M Tris buffer (pH 6.8-7.3), […] v/v oleic acid): 59 °C | Lipid Transition Temperature, Tm ([5]; 34/66/0 ethanol/PG/0.1M Tris buffer (pH 6.8-7.3), […] v/v oleic acid): 61 °C | Lipid Transition Temperature, Tm ([5]; 40/20/40 ethanol/PG/0.1M Tris buffer (pH 6.8-7.3), […] v/v oleic acid): 58.5 °C | Lipid Transition Temperature, Tm ([5]; 40/40/20 ethanol/PG/0.1M Tris buffer (pH 6.8-7.3), […] v/v oleic acid): 60 °C | Lipid Transition Temperature, Tm ([5]; 40/60 PEG 200/0.1M Tris buffer (pH 6.8-7.3), […] v/v oleic acid): 57.5 °C | Lipid Transition Temperature, Tm ([5]; 40/60 ethanol/0.1M Tris buffer (pH 6.8-7.3), […] v/v oleic acid): 55 °C | Lipid Transition Temperature, Tm ([5]; 40/60 glycerin/0.1M Tris buffer (pH 6.8-7.3), […] v/v oleic acid): 57 °C | Lipid Transition Temperature, Tm ([5]; 40/60 v/v ethanol/Sorensen's buffer pH 7.3, […] v/v oleic acid): 53.2 ± 0.6 °C | Lipid Transition Temperature, Tm ([5]; 50/50 v/v ethanol/Sorensen's buffer pH 7.3, […] v/v oleic acid): 55.1 °C | Lipid Transition Temperature, Tm ([5]; 60/40 PEG 200/0.1M Tris buffer (pH 6.8-7.3), […] v/v oleic acid): 57 °C | Lipid Transition Temperature, Tm ([5]; 60/40 ethanol/0.1M Tris buffer (pH 6.8-7.3), […] v/v oleic acid): 59 °C | Lipid Transition Temperature, Tm ([5]; 60/40 glycerin/0.1M Tris buffer (pH 6.8-7.3), […] v/v oleic acid): 54 °C | Lipid Transition Temperature, Tm ([5]; 60/40 v/v ethanol/Sorensen's buffer pH 7.3, […] v/v oleic acid): 53.4 °C | Lipid Transition Temperature, Tm ([5]; 66/34/0 ethanol/PG/0.1M Tris buffer (pH 6.8-7.3), […] v/v oleic acid): 60 °C | Lipid Transition Temperature, Tm ([5]; 70/30 v/v ethanol/Sorensen's buffer pH 7.3, […] v/v oleic acid): 58.8 °C | Lipid Transition Temperature, Tm ([5]; 80/20 PEG 200/0.1M Tris buffer (pH 6.8-7.3), […] v/v oleic acid): 61 °C | Lipid Transition Temperature, Tm ([5]; 80/20 ethanol/0.1M Tris buffer (pH 6.8-7.3), […] v/v oleic acid): 61 °C | Lipid Transition Temperature, Tm ([5]; 80/20 glycerin/0.1M Tris buffer (pH 6.8-7.3), […] v/v oleic acid): 59 °C | Lipid Transition Temperature, Tm ([5]; 100/0 v/v ethanol/Sorensen's buffer pH 7.3, […] v/v oleic acid): 66.4 °C | DSC Tm (temperature of the transition maximum) [3]: 59.0 ± 1.5 °C

CCCCCC/C=C\CCCCCCCCCC(=O)O [cis-vaccenic, cis-11-octadecenoic acid]
flux of salicylic acid (in words) ([1]; difference relative to the controls and trans-vaccenic acid): even greater | Flux of Salicylic Acid ([1]; saturated salicylic acid in ethanol with […] of the fatty acid, 32° C.): 5.53 mg/cm^2 /hr | DSC Tm (temperature of the transition maximum) [3]: 57.0 °C

CC(C)Cc1ccc(C(C)C(=O)O)cc1 (stereo not shown) [Ibuprofen, 2-(4-isobutylphenyl)propionic acid]
Relative Flux ([6]; 0/100 v/v ethanol/buffer, […] v/v oleic acid (reference)): 1.0 | Relative Flux ([6]; 20/80 v/v ethanol/buffer, […] v/v oleic acid, relative to 0/100 ethanol/buffer): 1.5 | Relative Flux ([6]; 30/70 v/v ethanol/buffer, […] v/v oleic acid, relative to 0/100 ethanol/buffer): 1.8 | Relative Flux ([6]; 40/60 v/v ethanol/buffer, […] v/v oleic acid, relative to 0/100 ethanol/buffer): 3.5 | Relative Flux ([6]; 50/50 v/v ethanol/buffer, […] v/v oleic acid, relative to 0/100 ethanol/buffer): 5 | Relative Flux ([6]; 60/40 v/v ethanol/buffer, […] v/v oleic acid, relative to 0/100 ethanol/buffer): 4.5 | Relative Flux ([6]; 70/30 v/v ethanol/buffer, […] v/v oleic acid, relative to 0/100 ethanol/buffer): 4.5 | Relative Flux ([6]; 100/0 v/v ethanol/buffer, […] v/v oleic acid, relative to 0/100 ethanol/buffer): 4.5

NC(CO)(CO)CO [Tris]
effect on oleic acid's action on stratum corneum lipids ([5]; concentration dependent): reduces the effect of oleic acid on stratum corneum lipids
